Laboratory results taken from ChEMBL document CHEMBL1201862, “PubChem BioAssay data set” (2004).
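Cells were grown in 96-well plates and exposed to each compound for 48 hours at five concentrations; endpoints were interpolated linearly between bracketing concentrations, or set to the highest concentration if not reached. GI50 marks 50% less growth.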 The source made the active and inactive calls. Rule as the data show it: active = GI50 up to about 1.1 µM and inactive = higher.

Tests used:
Experiment in all cases: NCI tumour cell line growth inhibition, 48 h
786-0 = tested on: 786-0
RXF 393 = tested on: RXF 393
SW-620 = tested on: SW-620
TK-10 = tested on: TK-10
SF-268 = tested on: SF-268
CAKI-1 = tested on: CAKI-1
ACHN = tested on: ACHN
MDA-N = tested on: MDA-N
UACC-257 = tested on: UACC-257
HOP-62 = tested on: HOP-62
SR = tested on: SR
MOLT-4 = tested on: MOLT-4
HOP-92 = tested on: HOP-92
SF-539 = tested on: SF-539
SN12C = tested on: SN12C
UACC-62 = tested on: UACC-62
RPMI-8226 = tested on: RPMI-8226
IGROV-1 = tested on: IGROV-1
SK-MEL-28 = tested on: SK-MEL-28
HCC 2998 = tested on: HCC 2998

Measured: GI50

COc1cccc(O)c1-c1cc(=O)c2c(O)c(OC)c(OC)c(OC)c2o1 [SKULLCAPFLAVONE II]
inactive: 786-0 42.6 µM | RXF 393 14.1 µM | SW-620 31.8 µM | TK-10 44.8 µM | SF-268 35.3 µM | CAKI-1 22.8 µM | ACHN 38.9 µM | MDA-N 12.9 µM | UACC-257 27 µM | HOP-62 17.5 µM | SR 4.82 µM | MOLT-4 29.2 µM | HOP-92 22.1 µM | SF-539 36.8 µM | SN12C 28 µM | UACC-62 14.7 µM | RPMI-8226 18.7 µM | IGROV-1 24.2 µM | SK-MEL-28 35.8 µM | HCC 2998 7.59 µM
